Structures can show the parent of a compound that is named as a salt.
Key:
[1] = system: human hepatocytes; experiment: Human Hepatocyte Stability Assay; format: in vitro ADME; conditions: comparison table, Example 12; head prints '(units)', method states L/hr/kg
Experimental: The human […] stability of the compounds as predicted hepatocyte clearance in L/hr/kg was assessed. Compounds to be tested were diluted to 200 μM (4 μl of 10 mM DMSO stock into 196 μl ACN:H2O (50:50). Propranolol was used as a positive control, and buffer only without hepatocytes as 0% control. These were further diluted 4 μl with 891 μl KHB buffer (InVitroGRO catalog number Z99074) to provide 2× dosing solution. To each well of 24 well plate, 250 μl of the 2× dosing solution was added to each well with 250 μl of hepatocytes cells (1×10^6 viable cells/ml per well) or KHB for control samples to achieve a final compound concentration of 1 μM during incubation. The final solvent concentration was 0.01% DMSO and 0.25% ACN. The culture plate was placed on a rocker and incubated at 37° C., 5% CO2. Samples were collected at time 0, 1, 3, and 6 hours. The loss of parent compound was determined using LC-MS methods against a standard curve.

[2] = cited from earlier work

Row | Hheps CL [1] [L/h/kg] | Compound | solubility in methanol [2]
1 | 0.12 | Cc1ncc(-c2cn3ccnc3c(Nc3ccc(N4CCN(C5COC5)CC4)cc3)n2)nc1N [Ex.-1, 6-(6-amino-5-methylpyrazin-2-yl)-N-(4-(4-(oxetan-3-yl)piperazin-1-yl)phenyl)imidazo[1,2-a]pyrazin-8-amine] | 
2 | 0.055 | Nc1cncc(-c2cn3ccnc3c(Nc3ccc(N4CCN(C5COC5)CC4)cc3)n2)n1 [Ex.-2, 6-(6-aminopyrazin-2-yl)-N-(4-(4-(oxetan-3-yl)piperazin-1-yl)phenyl)imidazo[1,2-a]pyrazin-8-amine] | 
3 | 0.09 | Nc1cncc(-c2cn3ccnc3c(Nc3ccc(N4CCO[C@@H](CO)C4)cc3)n2)n1 [Ex.-3, (R)-(4-(4-((6-(6-aminopyrazin-2-yl)imidazo[1,2-a]pyrazin-8-yl)amino)phenyl)morpholin-2-yl)methanol] | 
4 | 0.08 | Cc1c(-c2cncc(N)n2)nc(Nc2ccc(N3CCN(C4COC4)CC3)cc2)c2nccn12 [Ex.-4, 6-(6-aminopyrazin-2-yl)-5-methyl-N-(4-(4-(oxetan-3-yl)piperazin-1-yl)phenyl)imidazo[1,2-a]pyrazin-8-amine] | 
5 | 0.07 | Nc1cncc(-c2cn3ccnc3c(Nc3ccc(N4CCN(C5COC5)CC4)c(OCCO)c3)n2)n1 [Ex.-5, 2-(5-((6-(6-aminopyrazin-2-yl)imidazo[1,2-a]pyrazin-8-yl)amino)-2-(4-(oxetan-3-yl)piperazin-1-yl)phenoxy)ethanol] | 
6 | 0.08 | Nc1cncc(-c2cn3ccnc3c(Nc3ccc(N4CCN(CC(CO)CO)CC4)cc3)n2)n1 [Ex.-6, 2-((4-(4-((6-(6-aminopyrazin-2-yl)imidazo[1,2-a]pyrazin-8-yl)amino)phenyl)piperazin-1-yl)methyl)propane-1,3-diol] | 
7 | 0.05 | Cc1ncc(-c2cn3ccnc3c(Nc3ccc(N4CCN(C5COC5)CC4)c(OCCO)c3)n2)nc1N [Ex.-7, 2-(5-((6-(6-amino-5-methylpyrazin-2-yl)imidazo[1,2-a]pyrazin-8-yl)amino)-2-(4-(oxetan-3-yl)piperazin-1-yl)phenoxy)ethanol] | 

Continued, compound first:

Row | Compound | Hheps CL [1] [L/h/kg] | solubility in methanol [2]
8 | COc1ccc(Nc2nc(-c3cccc(N)c3)cn3ccnc23)cc1OC [6-(3-aminophenyl)-N-(3,4-dimethoxyphenyl)imidazo[1,2-a]pyrazin-8-amine, reference compound] | 0.24 | 
9 | Cc1ncc(-c2cn3ccnc3c(Nc3ccc(N4CCOCC4)cc3)n2)cc1N [6-(5-amino-6-methylpyridin-3-yl)-N-(4-morpholinophenyl)imidazo[1,2-a]pyrazin-8-amine, reference compound] | 0.80 | 
10 | Nc1cncc(-c2cn3ccnc3c(Nc3ccc(N4CCOCC4)cc3)n2)c1 [6-(5-aminopyridin-3-yl)-N-(4-morpholinophenyl)imidazo[1,2-a]pyrazin-8-amine, reference compound] | 0.68 | 
11 | COc1ccc(Nc2nc(-c3ccc(N)nc3)cn3ccnc23)cc1OC [6-(6-aminopyridin-3-yl)-N-(3,4-dimethoxyphenyl)imidazo[1,2-a]pyrazin-8-amine, reference compound] | 0.90 | 
12 | CC[C@]1(O)C[C@H]2CN(CCc3c([nH]c4ccccc34)[C@@](C(=O)OC)(c3cc4c(cc3OC)N(C=O)[C@H]3[C@@](O)(C(=O)OC)[C@H](OC(C)=O)[C@]5(CC)C=CCN6CC[C@]43[C@@H]65)C2)C1 [Vincristine Sulfate, vincristine sulfate] |  | soluble

From patent publication US9931338B2, “Syk inhibitors” (Gilead Sciences, Inc., priority 2014, dated 2018)
